From article PMC10692381 (Acta Pharmaceutica Sinica. B, 2023)

Target: PRMT3 (Homo sapiens, UniProt O60678)
Test: Fluorescence-based SAHH-coupled PRMT3 methylation assay
Assay type: biochemical

Sequence of PRMT3 (O60678 211-531): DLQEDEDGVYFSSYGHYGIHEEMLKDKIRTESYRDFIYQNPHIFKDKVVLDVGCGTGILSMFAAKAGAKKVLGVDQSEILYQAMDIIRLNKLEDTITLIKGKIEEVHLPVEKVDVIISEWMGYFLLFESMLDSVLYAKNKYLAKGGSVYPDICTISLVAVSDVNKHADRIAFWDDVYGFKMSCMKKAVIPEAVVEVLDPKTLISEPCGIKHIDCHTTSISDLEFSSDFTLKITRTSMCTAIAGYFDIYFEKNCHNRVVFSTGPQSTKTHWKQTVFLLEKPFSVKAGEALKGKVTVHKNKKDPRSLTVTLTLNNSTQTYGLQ

Structure (SMILES) | fold reduction in PRMT3 inhibition (compared to YD1113) | other results
Nc1ncnc2c1ncn2[C@@H]1O[C@H](CSCCNC(=O)NCc2ccccc2)[C@@H](O)[C@H]1O [Compound 1c] |  | fold increased inhibition for PRMT3 (compared to 1b (linker 3C to 2C)): 140 fold
Nc1ncnc2c1ncn2[C@@H]1O[C@H](CSCCNC(=O)NCc2ccc(F)cc2)[C@@H](O)[C@H]1O [Compound 1e] | over 10 fold | 
Nc1ncnc2c1ncn2[C@@H]1O[C@H](CSCCNC(=O)Nc2ccccc2)[C@@H](O)[C@H]1O [Compound 1h] | 4 fold | 
Nc1ncnc2c1ncn2[C@@H]1O[C@H](CSCCNC(=O)Nc2ccc(F)cc2)[C@@H](O)[C@H]1O [Compound 1i] | 4 fold | 
Nc1ncnc2c1ncn2[C@@H]1O[C@H](CSCCNC(=O)Nc2ccc(Cl)cc2)[C@@H](O)[C@H]1O [Compound 1j] |  | fold reduction in PRMT3 inhibition (compared to 1i): 10 fold
Nc1ncnc2c1ncn2[C@@H]1O[C@H](CSCCNC(=O)Nc2cccc3ccccc23)[C@@H](O)[C@H]1O [Compound 1k] |  | fold reduction in PRMT3 inhibition (compared to phenyl (1h)): over 40 fold
